According to US20240352021A1 (DANA-FARBER CANCER INSTITUTE, INC., priority 2021, published 2024):
pIC50: −log10 of the molar value.

Tests used:
[1] = molecular target: EGFR L858R/T790M (Homo sapiens, UniProt P00533, L858R/T790M); test: EGFR biochemical assay (headed HTRF-based; method describes Z'-LYTE), L858R/T790M; conditions: Table 4
Procedure: (§1) To measure the IC50 values of compounds herein against EGFR, a Z′-LYTE assay (ThermoFisher) was used. Briefly, 2.5 μL of different concentrations of the compounds in 4% DMSO were added to 5 μL kinase/peptide mixture in each well of a 384-well plate (Corning Cat. #3676). 2.5 μL of 4× ATP solution (4× ATP, 50 mM HEPES, pH 7.5, 0.01% BRIJ-35, 10 mM MgCl2, 1 mM EGTA) were added to each well. The plate was shaken for 30 seconds, and then incubated at room temperature for 60 minutes. 5 μL of a 1:100000 dilution of Development Reagent A was added to each well. The plate was then incubated for 60 mins at room temperature. 5 μL of the stop reagent was then added. The plate was subsequently read on a fluorescence plate reader, and the emissions ratio was calculated to determine the ratio of Ser/Thr 07 phosphorylated by the reaction. Emissions Ratio═Coumarin Emission (443 nm)/Flourescein Emission (520 nm).
(§2) HTRF-based EGFR assay data are provided below in Table 4.

[2] = molecular target: EGFR mutant L858R Ba/F3 cells (Homo sapiens, UniProt P00533, L858R, cells depend on it); test: Ba/F3 cell proliferation (Cell Titer Glo), EGFR L858R; assay type: cell-based, murine; conditions: 72 hours, Table 6, read-out: L858R BaF3
Summary of the method: (§3)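 Retrovirally transduced, puromycin-selected Ba/F3 cells expressing EGFR L858R or L858R/C797S, grown in RPMI + 10% FBS, exposed to compounds for 72 h in triplicate. Viability by Cell Titer Glo ATP luminescence; IC50 from sigmoidal dose-response fit, binned A <0.1, B 0.1–0.5, C 0.5–2.5, D ≥2.5 μM.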

[3] = molecular target: EGFR L858R/C797S Ba/F3 cells (Homo sapiens, UniProt P00533, C797S/L858R, cells depend on it); test: Ba/F3 cell proliferation (Cell Titer Glo), EGFR L858R/C797S; assay type: cell-based, murine; conditions: 72 hours, Table 6
Summary of the method: as §3

[4] = molecular target: EGFR L858R (Homo sapiens, UniProt P00533, L858R); test: EGFR biochemical assay (headed HTRF-based; method describes Z'-LYTE), L858R; conditions: Table 4
Procedure: as §1, §2

EGFR L858R, sequence (P00533 25-1210 L858R): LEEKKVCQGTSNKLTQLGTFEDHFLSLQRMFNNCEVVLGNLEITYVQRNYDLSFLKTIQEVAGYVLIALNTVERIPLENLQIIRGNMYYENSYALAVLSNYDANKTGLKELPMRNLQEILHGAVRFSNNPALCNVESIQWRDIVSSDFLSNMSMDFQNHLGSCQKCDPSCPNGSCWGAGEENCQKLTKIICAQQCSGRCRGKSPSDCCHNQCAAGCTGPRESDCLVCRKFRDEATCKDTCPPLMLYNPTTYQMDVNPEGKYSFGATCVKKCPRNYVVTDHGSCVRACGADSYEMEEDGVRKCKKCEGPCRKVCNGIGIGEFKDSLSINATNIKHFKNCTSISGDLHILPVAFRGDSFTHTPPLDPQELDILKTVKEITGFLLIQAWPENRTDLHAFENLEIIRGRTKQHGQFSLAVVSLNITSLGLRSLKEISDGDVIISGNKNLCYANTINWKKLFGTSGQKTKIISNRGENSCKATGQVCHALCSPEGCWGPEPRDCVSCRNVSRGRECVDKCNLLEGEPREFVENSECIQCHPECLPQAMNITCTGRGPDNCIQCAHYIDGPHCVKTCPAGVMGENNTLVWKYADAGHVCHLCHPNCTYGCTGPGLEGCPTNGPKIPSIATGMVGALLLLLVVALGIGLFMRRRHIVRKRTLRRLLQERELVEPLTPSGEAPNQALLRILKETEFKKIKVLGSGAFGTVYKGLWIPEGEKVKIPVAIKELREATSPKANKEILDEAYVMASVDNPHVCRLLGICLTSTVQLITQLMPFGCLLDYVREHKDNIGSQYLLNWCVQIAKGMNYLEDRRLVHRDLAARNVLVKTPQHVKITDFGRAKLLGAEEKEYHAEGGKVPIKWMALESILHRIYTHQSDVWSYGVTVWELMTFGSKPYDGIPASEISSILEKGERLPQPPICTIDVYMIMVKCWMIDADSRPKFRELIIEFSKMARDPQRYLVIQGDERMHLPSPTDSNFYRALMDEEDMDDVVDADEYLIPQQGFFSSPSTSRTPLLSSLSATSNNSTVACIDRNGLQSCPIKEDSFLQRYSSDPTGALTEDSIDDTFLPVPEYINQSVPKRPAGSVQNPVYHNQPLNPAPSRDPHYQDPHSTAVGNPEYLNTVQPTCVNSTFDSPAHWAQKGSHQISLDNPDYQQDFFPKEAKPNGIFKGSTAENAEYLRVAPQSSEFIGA
EGFR L858R/T790M, sequence (P00533 25-1210 T790M/L858R): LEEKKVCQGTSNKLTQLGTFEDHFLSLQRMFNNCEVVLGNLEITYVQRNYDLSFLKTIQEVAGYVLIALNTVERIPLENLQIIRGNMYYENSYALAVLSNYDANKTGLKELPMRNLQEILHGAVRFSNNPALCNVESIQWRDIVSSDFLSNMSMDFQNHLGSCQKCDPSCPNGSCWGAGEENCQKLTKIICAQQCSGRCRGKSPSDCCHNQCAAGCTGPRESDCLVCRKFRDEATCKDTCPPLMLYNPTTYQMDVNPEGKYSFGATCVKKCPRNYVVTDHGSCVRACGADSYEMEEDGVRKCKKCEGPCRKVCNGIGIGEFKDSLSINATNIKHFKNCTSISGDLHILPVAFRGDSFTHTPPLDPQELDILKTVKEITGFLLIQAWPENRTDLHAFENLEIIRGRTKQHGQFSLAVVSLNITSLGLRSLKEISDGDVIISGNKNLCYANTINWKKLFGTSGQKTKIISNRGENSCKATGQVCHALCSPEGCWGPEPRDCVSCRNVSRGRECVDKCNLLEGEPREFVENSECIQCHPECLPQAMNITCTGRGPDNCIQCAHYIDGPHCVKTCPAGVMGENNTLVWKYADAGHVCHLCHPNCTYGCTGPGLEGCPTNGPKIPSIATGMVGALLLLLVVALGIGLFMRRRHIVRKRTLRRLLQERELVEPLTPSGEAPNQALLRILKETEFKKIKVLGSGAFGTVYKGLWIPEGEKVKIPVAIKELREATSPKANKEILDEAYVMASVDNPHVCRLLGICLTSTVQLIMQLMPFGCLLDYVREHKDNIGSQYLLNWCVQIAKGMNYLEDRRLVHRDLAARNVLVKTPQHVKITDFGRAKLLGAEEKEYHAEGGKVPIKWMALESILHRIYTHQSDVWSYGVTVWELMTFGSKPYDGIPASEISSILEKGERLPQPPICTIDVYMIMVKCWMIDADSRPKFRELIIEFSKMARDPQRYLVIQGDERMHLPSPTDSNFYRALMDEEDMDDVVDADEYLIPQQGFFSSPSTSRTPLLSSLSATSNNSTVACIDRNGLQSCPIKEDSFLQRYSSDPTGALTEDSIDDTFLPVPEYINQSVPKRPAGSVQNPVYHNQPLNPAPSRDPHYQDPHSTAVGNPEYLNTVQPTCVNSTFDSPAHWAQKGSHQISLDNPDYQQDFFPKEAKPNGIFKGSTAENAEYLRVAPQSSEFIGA
EGFR L858R/C797S Ba/F3 cells, sequence (P00533 whole entry C797S/L858R): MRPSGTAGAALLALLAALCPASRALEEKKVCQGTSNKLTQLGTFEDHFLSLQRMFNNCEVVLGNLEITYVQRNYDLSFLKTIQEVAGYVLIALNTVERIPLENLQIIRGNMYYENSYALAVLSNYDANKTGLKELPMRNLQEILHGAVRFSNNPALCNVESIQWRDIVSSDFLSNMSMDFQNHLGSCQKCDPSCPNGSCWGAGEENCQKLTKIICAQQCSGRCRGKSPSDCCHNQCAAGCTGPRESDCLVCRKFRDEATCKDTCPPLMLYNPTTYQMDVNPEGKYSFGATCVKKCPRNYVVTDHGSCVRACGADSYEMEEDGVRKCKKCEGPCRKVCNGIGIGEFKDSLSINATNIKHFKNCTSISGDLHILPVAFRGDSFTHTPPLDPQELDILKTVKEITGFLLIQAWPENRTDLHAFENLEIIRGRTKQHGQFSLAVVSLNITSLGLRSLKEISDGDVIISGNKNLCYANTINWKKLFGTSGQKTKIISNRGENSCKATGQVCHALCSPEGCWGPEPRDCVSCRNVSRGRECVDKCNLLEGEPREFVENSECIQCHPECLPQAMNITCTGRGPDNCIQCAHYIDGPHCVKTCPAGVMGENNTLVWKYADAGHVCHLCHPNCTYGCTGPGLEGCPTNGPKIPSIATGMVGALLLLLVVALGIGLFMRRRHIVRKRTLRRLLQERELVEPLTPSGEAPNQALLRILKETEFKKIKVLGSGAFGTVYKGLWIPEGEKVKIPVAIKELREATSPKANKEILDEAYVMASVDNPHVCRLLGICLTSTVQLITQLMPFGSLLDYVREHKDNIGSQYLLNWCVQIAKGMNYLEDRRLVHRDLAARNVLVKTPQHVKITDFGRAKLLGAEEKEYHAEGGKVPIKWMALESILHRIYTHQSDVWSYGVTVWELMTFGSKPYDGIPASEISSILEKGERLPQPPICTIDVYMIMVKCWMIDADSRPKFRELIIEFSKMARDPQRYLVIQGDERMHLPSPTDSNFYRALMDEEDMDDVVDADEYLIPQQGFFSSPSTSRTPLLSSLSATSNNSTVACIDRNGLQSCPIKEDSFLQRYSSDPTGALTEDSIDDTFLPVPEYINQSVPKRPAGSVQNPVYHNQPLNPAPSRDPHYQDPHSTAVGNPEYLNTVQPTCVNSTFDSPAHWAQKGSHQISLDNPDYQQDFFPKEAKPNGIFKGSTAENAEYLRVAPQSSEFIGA
EGFR mutant L858R Ba/F3 cells, sequence (P00533 whole entry L858R): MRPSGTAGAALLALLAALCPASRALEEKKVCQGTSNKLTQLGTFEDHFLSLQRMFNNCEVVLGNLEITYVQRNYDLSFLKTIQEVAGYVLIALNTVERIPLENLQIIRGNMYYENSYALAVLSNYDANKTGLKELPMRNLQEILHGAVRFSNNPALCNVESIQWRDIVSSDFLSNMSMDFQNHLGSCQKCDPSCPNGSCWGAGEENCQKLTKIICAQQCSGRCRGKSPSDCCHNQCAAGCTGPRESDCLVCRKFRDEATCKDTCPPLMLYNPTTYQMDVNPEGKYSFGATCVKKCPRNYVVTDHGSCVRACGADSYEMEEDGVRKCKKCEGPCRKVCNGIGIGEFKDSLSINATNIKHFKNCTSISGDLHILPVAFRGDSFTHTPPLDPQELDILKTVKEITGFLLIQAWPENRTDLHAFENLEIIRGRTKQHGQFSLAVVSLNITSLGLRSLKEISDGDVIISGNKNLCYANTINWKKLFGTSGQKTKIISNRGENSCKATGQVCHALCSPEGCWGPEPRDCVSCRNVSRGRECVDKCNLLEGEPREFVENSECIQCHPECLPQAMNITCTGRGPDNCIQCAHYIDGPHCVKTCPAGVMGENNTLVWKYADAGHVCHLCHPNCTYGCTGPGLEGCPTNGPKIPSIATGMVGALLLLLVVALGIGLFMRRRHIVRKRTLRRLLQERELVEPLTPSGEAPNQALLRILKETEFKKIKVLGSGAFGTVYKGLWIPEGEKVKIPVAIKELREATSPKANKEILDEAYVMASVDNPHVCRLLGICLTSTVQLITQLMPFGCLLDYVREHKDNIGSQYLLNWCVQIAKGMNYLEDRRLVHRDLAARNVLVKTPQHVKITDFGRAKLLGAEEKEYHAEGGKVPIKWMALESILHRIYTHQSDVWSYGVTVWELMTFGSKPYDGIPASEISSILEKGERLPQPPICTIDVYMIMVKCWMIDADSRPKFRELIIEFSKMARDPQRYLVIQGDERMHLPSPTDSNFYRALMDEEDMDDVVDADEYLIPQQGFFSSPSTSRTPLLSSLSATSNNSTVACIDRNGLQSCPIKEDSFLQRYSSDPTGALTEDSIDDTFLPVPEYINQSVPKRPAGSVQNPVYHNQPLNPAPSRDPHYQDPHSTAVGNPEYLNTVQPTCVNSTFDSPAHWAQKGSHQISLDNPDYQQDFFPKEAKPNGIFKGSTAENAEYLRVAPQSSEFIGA

Structure (SMILES)	pIC50 [1]	GI50 [2] [nM]	GI50 [3] [nM]	pIC50 [4]
C=CC(=O)N1CCC(N2Cc3cnc(Nc4ccc(N5CCN(C)CC5)cc4)nc3N(CC(F)F)C2=O)c2cccc(OC)c21 (stereo not drawn) [Compound 134, 3-(1-acryloyl-8-methoxy-1,2,3,4-tetrahydroquinolin-4-yl)-1-(2,2-difluoroethyl)-7-((4-(4-methylpiperazin-1-yl)phenyl)amino)-3,4-dihydropyrimido[4,5-d]pyrimidin-2(1H)-one]	< 6.00	< 100	100 to 500	7.41
C=CC(=O)N1c2ccccc2[C@@H](N2Cc3cnc(Nc4ccc(N5CCN(C)CC5)cc4)nc3N(C)C2=O)C[C@@H]1C [Compound 135, 1-methyl-7-[4-(4-methylpiperazin-1-yl)anilino]-3-[(2S,4S)-2-methyl-1-prop-2-enoyl-3,4-dihydro-2H-quinolin-4-yl]-4H-pyrimido[4,5-d]pyrimidin-2-one]	< 6.00	< 100	< 100	9.05
C=CC(=O)N1CCC(N2Cc3cnc(Nc4ccc(N5CCN(C)CC5)cc4)nc3N(C)C2=O)c2cnn(C)c21 (stereo not drawn) [Compound 132, 1-methyl-7-[4-(4-methylpiperazin-1-yl)anilino]-S-(1-methyl-7-prop-2-enoyl-5,6-dihydro-4H-pyrazolo[3,4-b]pyridin-4-yl)-4H-pyrimido[4,5-d]pyrimidin-2-one]	< 6.00	100 to 500	100 to 500	< 6.00
C=CC(=O)N1CCC(N2Cc3cnc(Nc4ccc(N5CCN(C)CC5)cc4)nc3N(C)C2=O)c2cccc(O)c21 (single isomer, unassigned) [Compound 156]	8.93	< 100	< 100	9.74
[2H]C1(N2Cc3cnc(Nc4ccc(OCCN5CCCC5)cc4)nc3N(C)C2=O)CCN(C(=O)C=C)c2ccccc21 (stereo not drawn) [Compound 128]	< 6.15	< 100	< 100	9.05
C=CC(=O)N1CC[C@@H](N2Cc3cnc(Nc4cnn(CCO)c4)nc3N(C)C2=O)c2cccc(OC)c21 (single isomer, unassigned) [Compound 117]	< 7.00	≥ 2500	≥ 2500	< 7.00
C=C(CN1CCC(N2Cc3cnc(Nc4ccc(N5CCN(C)CC5)cc4)nc3N(C)C2=O)C1)C(=O)O (stereo not drawn) [Compound 136, 2-[[3-[1-methyl-7-[4-(4-methylpiperazin-1-yl)anilino]-2-oxo-4H-pyrimido[4,5-d]pyrimidin-S-yl]pyrrolidin-1-yl]methyl]prop-2-enoic acid]	< 6.00	≥ 2500	≥ 2500	< 6.00
C=CC(=O)N1CC[C@H](N2Cc3cnc(Nc4cnn(CCO)c4)nc3N(C)C2=O)[C@@H]2CCC[C@@H]21 [Compound 126, 7-[[1-(2-hydroxyethyl)pyrazol-4-yl]amino]-1-methyl-S-(1-prop-2-enoyl-2,3,4,4a, 5,6,7,7a-octahydrocyclopenta[b]pyridin-4-yl)-4H-pyrimido[4,5-d]pyrimidin-2-one]	< 7.00	≥ 2500	≥ 2500	< 7.00
C=C(F)C(=O)N1CC[C@@H](N2Cc3cnc(Nc4cnn(CCO)c4)nc3N(C)C2=O)c2cccc(OC)c21 (single isomer, unassigned) [Compound 119]	< 7.00	≥ 2500	≥ 2500	< 7.00
C=CC(=O)N1CCC(C)(N2Cc3cnc(Nc4cnn(CCO)c4)nc3N(C)C2=O)CC1 [Compound 125, 7-[[1-(2-hydroxyethyl)pyrazol-4-yl]amino]-1-methyl-S-(4-methyl-1-prop-2-enoyl-4-piperidyl)-4H-pyrimido[4,5-d]pyrimidin-2-one]	< 7.00	≥ 2500	≥ 2500	< 7.00
C=CC(=O)N1CCC(N2Cc3cnc(Nc4ccc(N5CCN(C)CC5)cc4)nc3N(C)C2=O)C(c2ccccc2)C1 (stereo not drawn) [Compound 159]	< 7.00	500 to 2500	≥ 2500	< 7.00
C=CC(=O)N1CC[C@H](N2Cc3cnc(Nc4ccc(N5CCN(C)CC5)cc4)nc3N(C)C2=O)[C@H](N)C1 (relative stereo) [Compound 148, rel-(3R,4S)—S-(3-amino-1-prop-2-enoyl-4-piperidyl)-1-methyl-7-[4-(4-methylpiperazin-1-yl)anilino]-4H-pyrimido[4,5-d]pyrimidin-2-one]	< 6.00	≥ 2500	≥ 2500	< 6.00
C=CC(=O)N1CCC(n2c(=O)c3cnc(Nc4cnn(CCO)c4)nc3n(C)c2=O)c2ccccc21 (stereo not drawn) [Compound 122, 7-[[1-(2-hydroxyethyl)pyrazol-4-yl]amino]-1-methyl-S-(1-prop-2-enoyl-3,4-dihydro-2H-quinolin-4-yl)pyrimido[4,5-d]pyrimidine-2,4-dione]	< 7.00	100 to 500	500 to 2500	< 7.00
[2H]C1(N2Cc3cnc(Nc4cnn(CCO)c4)nc3N(C)C2=O)CCN(C(=O)C=C)c2ccccc21 (stereo not drawn) [Compound 127]	< 6.15	< 100	< 100	8.92
C=CC(=O)N1CCC(N2Cc3cnc(Nc4ccc(N5CCN(C)CC5)cc4)nc3N(C)C2=O)c2cccc(OC)c21 (single isomer, unassigned) [Compound 123]	< 7.00	≥ 2500	≥ 2500	7.20
C=CC(=O)N1CC[C@H](N2Cc3cnc(Nc4ccc(N5CCN(C)CC5)cc4)nc3N(C)C2=O)C[C@@H]1CO [Compound 146, 3-[(2R,4S)-2-(hydroxymethyl)-1-prop-2-enoyl-4-piperidyl]-1-methyl-7-[4-(4-methylpiperazin-1-yl)anilino]-4H-pyrimido[4,5-d]pyrimidin-2-one]	< 6.00	500 to 2500	≥ 2500	< 6.00
C=CC(=O)N1CCC2(N3Cc4cnc(Nc5ccc(OCCN6CCCC6)cc5)nc4N(C)C3=O)CC2C1 (stereo not drawn) [Compound 121, 1-methyl-S-(3-prop-2-enoyl-S-azabicyclo[4.1.0]heptan-6-yl)-7-[4-(2-pyrrolidin-1-ylethoxy)anilino]-4H-pyrimido[4,5-d]pyrimidin-2-one]	< 7.00	≥ 2500	≥ 2500	< 7.00
C=CC(=O)N1CC[C@H](N2Cc3cnc(Nc4cnn(CCO)c4)nc3N(C)C2=O)c2cccc(OC)c21 [Compound 118]	< 7.00	100 to 500	500 to 2500	< 7.00
C=CC(=O)N1CC[C@H](N2Cc3cnc(Nc4ccc(CS(C)(=O)=O)cc4)nc3N(C)C2=O)c2cccc(C)c21 [Compound 144]	< 6.00	< 100	< 100	8.80
C=CC(=O)N1CCC12CC(N1Cc3cnc(Nc4ccc(N5CCN(C)CC5)cc4)nc3N(C)C1=O)C2 (stereo not drawn) [Compound 142, 1-methyl-7-[4-(4-methylpiperazin-1-yl)anilino]-S-(1-prop-2-enoyl-1-azaspiro[3.3]heptan-6-yl)-4H-pyrimido[4,5-d]pyrimidin-2-one]	< 6.00	500 to 2500	≥ 2500	< 6.00
C=C(F)C(=O)N1CC[C@H](N2Cc3cnc(Nc4cnn(CCO)c4)nc3N(C)C2=O)c2cccc(OC)c21 (single isomer, unassigned) [Compound 120]	< 7.00	≥ 2500	≥ 2500	< 7.00
